# Assay results taken from patent US7932262B2 (Novartis AG, priority 2006, dated 2011).
# Read-outs that look alike come from different tables or passages of the source.
# Experiments:
# [1] = target: T1, PDK1 kinase (Homo sapiens, UniProt O15530); experiment: PDK1 Kinase Alpha Screen Assay; format: biochemical; conditions: read-out: PDK1 IC50
# T1 sequence (O15530 1-556): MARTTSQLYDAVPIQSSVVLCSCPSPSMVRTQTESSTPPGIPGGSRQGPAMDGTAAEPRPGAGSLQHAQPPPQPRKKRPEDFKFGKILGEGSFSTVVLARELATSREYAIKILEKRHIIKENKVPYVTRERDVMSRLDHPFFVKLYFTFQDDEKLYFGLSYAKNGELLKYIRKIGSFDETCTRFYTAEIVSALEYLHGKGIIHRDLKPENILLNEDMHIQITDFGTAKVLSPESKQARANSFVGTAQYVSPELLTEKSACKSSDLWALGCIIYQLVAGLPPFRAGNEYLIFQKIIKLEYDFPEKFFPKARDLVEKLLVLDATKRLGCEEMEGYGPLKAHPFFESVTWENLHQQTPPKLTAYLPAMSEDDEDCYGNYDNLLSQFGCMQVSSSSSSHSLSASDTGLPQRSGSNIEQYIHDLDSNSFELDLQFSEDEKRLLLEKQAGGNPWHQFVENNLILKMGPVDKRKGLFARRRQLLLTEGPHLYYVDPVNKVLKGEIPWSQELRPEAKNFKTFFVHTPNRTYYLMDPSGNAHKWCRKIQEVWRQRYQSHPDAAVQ
# Outline: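 Detection used AlphaScreen: streptavidin donor and protein A acceptor beads (25 μg/ml each) bridged by a phospho-(Ser/Thr) PKA substrate antibody binding phosphorylated peptide. Reaction: biotin-PDK1-4 peptide (50 nM), ATP (10 uM), PDK1 in pH 7.5 Tris/MgCl2/DTT buffer, 3-18 hours, EDTA-stopped.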
# [2] = system: A2780 cells; experiment: Cell Proliferation Assay (Cell Titer Glo), A2780; format: cell-based; conditions: Homo sapiens, A2780 cells, read-out: CPEC50 A2780
# Outline: (§1)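 Following a 3-day compound exposure (37° C., 5% CO2) of A2780 or PC3MM cells plated at 1000 per well, viability was measured by Cell Titer Glo luminescence in fresh medium, read 10 min after reagent addition.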
# [3] = system: pAkt308 (phosphorylation of Akt at T308) in PC-3 cells; experiment: pAkt T308 ECL Assay in PC-3 cells; format: cell-based; conditions: Homo sapiens, 6 h, six hours with compound, read-out: PAKT308 PC3 IC50
# Method: VI. The pAkt^T308 ECL Assay Protocol
# On Day 1, PC-3 cells were seeded at 15,000 cells/well in 100 μL/well ([…]) growth media into black-walled, clear bottom, poly-L-lysine coated plates. The cells were incubated overnight in a 37° C., 5% CO2 incubator.
# On Day 2, a MSD ECL plate was blocked for two hours with 150 μL per well of 3% MSD blocker A.
# Test compounds were diluted to 500× in DMSO and then were subjected to further serial dilution using a BioMek 2000 instrument. DMSO diluted compounds were then diluted into growth media and then added to the cell plates.
# The cell plates incubated with compounds for six hours in a 37° C., 5% CO2 incubator after which the growth medium was removed and 55 μl of MSD lysis buffer was added to cell plates on ice. The plates were lysed on ice for five minutes followed by 15 minutes of vigorous shaking on a plate shaker at 4° C. The blocked MSD assay plates were washed twice with 1×MSD wash buffer followed by the addition of cell lysate as follows: 30 μl of cell lysate was added to the pAkt308 plates and 13 μl of lysate+12 μl lysis buffer was added to the tAkt plates. The plates were then sealed and shaken at 4° C. overnight.
# On Day 3, the MSD plates were washed four times with 1×MSD wash buffer then, 25 μl/well of MSD SULFO-TAG antibodies diluted to 10 nM final concentration in 1% blocker. A buffer was added to the antibody diluent which was added to assay plates. The plates were then sealed and incubated at RT for 1.5 hour. The plates were then washed twice with 1×MSD wash buffer followed by the addition of 150 μl/well of 1.5×MSD read buffer. The plates were read immediately after the addition of read buffer using a Trilux instrument. […]
# [4] = system: PC-3 cells; experiment: Cell Proliferation Assay (Cell Titer Glo), PC-3 cell line; format: cell-based; conditions: Homo sapiens
# Outline: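 Cell Titer Glo luminescence, read after fresh medium replaced the dosing medium, gave viability of PC-3 cells plated at 1000 cells/well. Compounds, 1:3 serially diluted in DMSO at 500× and then in medium, were added after 3-5 h adhesion and incubated 3 days at 37° C.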
# [5] = system: PC3MM cells; experiment: Cell Proliferation Assay (Cell Titer Glo), PC3MM; format: cell-based; conditions: cell proliferation, PC3MM cells; read-out: CPEC50 PC3MM
# Outline: as §1
# [6] = PC-3, 72 h, PC-3 cells, 3 days incubation, read-out: CP EC50 PC3
# [7] = PC-3, cell proliferation, PC3 cells, read-out: CPEC50 PC3
Structure (SMILES),IC50 [1],"EC50 ([2]; 72 h, 3 days incubation)",IC50 [3],"EC50 [4, 6]",IC50 ([1]; PDK1 Kinase Alpha Screen Assay),EC50 ([2]; cell proliferation),"EC50 [4, 7]",EC50 [5]
"O=S(=O)(c1cccc(Nc2ncc3cccc(OC4CCNCC4)c3n2)c1)N1CCOCC1 [Compound 5, [3-(Morpholine-4-sulfonyl)-phenyl]-[8-(piperidin-4-yloxy)-quinazolin-2-yl]-amine]",< 5 µM,< 5 µM,5 to 10 µM,–,–,–,–,–
"NS(=O)(=O)c1ccc(Nc2ncc3ccc(-c4nccs4)c(OC4CCNCC4)c3n2)cc1 [Compound 27, 4-[8-(Piperidin-4-yloxy)-7-thiazol-2-yl-quinazolin-2-ylamino]-benzenesulfonamide]",< 5 µM,< 5 µM,< 5 µM,–,–,–,–,–
"CC(C)NS(=O)(=O)c1ccc(Nc2ncc3ccc(OC4CCN(C(C)C)CC4)cc3n2)cc1 [Compound 58, N-Isopropyl-4-[7-(1-isopropyl-piperidin-4-yloxy)-quinazolin-2-ylamino]-benzenesulfonamide]",< 5 µM,–,< 5 µM,< 5 µM,–,–,–,–
"C#Cc1cc(OC2CCN(C(C)C)CC2)c2nc(Nc3ccc(S(N)(=O)=O)cc3)ncc2c1 [Compound 86, 4-[6-Ethynyl-8-(1-isopropyl-piperidin-4-yloxy)-quinazolin-2-ylamino]-benzenesulfonamide]",< 5 µM,–,< 5 µM,< 5 µM,–,–,–,–
"Nc1ncc(-c2ccc3cnc(Nc4ccc(S(N)(=O)=O)cc4)nc3c2OC2CCNCC2)cc1C(F)(F)F [Compound 68, 4-[7-(6-Amino-5-trifluoromethyl-pyridin-3-yl)-8-(piperidin-4-yloxy)-quinazolin-2-ylamino]-benzenesulfonamide]",< 5 µM,–,5 to 10 µM,< 5 µM,–,–,–,–
"CNS(=O)(=O)Cc1ccc(Nc2ncc3ccc(OC4CCN(C(C)C)CC4)cc3n2)cc1 [Compound 61, C-{4-[7-(1-Isopropyl-piperidin-4-yloxy)-quinazolin-2-ylamino]-phenyl}-N-methyl-methanesulfonamide]",< 5 µM,–,< 5 µM,< 5 µM,–,–,–,–
"CC(=O)Nc1ccc(Nc2ncc3cccc(OC4CCN(C(C)C)CC4)c3n2)cc1 [Compound 73, N-{4-[8-(1-Isopropyl-piperidin-4-yloxy)-quinazolin-2-ylamino]-phenyl}-acetamide]",< 5 µM,–,5 to 10 µM,< 5 µM,–,–,–,–
"COc1cc(Nc2ncc3ccc(OC4CCNCC4)cc3n2)cc(OC)c1 [Compound 55, (3,5-Dimethoxy-phenyl)-[7-(piperidin-4-yloxy)-quinazolin-2-yl]-amine]",< 5 µM,–,< 5 µM,< 5 µM,–,–,–,–
"CC(C)NC(=O)Cc1ccc(Nc2ncc3cccc(OC4CCN(C(C)C)CC4)c3n2)cc1 [Compound 71, N-Isopropyl-2-{4-[8-(1-isopropyl-piperidin-4-yloxy)-quinazolin-2-ylamino]-phenyl}-acetamide]",< 5 µM,–,5 to 10 µM,< 5 µM,–,–,–,–
"CC(C)CN1CCC(Oc2cccc3cnc(Nc4ccc(S(N)(=O)=O)cc4)nc23)CC1 [Compound 816, 4-(8-(1-isobutylpiperidin-4-yloxy)quinazolin-2-ylamino)benzenesulfonamide]",–,–,–,–,< 5 µM,< 5 µM,< 5 µM,< 5 µM
"CNC(=O)Cc1cccc(Nc2ncc3cccc(OC4CCN(C(C)C)CC4)c3n2)c1 [Compound 77, 2-{3-[8-(1-Isopropyl-piperidin-4-yloxy)-quinazolin-2-ylamino]-phenyl}-N-methyl-acetamide]",< 5 µM,–,< 5 µM,< 5 µM,–,–,–,–
"CN1CCC(Oc2ccc3cnc(Nc4ccc(S(N)(=O)=O)cc4)nc3c2)CC1 [Compound 763, 4-(7-(1-methylpiperidin-4-yloxy)quinazolin-2-ylamino)benzenesulfonamide]",–,–,–,–,< 5 µM,< 5 µM,< 5 µM,< 5 µM
"CNC(=O)Cc1ccc(Nc2ncc3cccc(OC4CCN(C(C)C)CC4)c3n2)cc1 [Compound 70, 2-{4-[8-(1-Isopropyl-piperidin-4-yloxy)-quinazolin-2-ylamino]-phenyl}-N-methyl-acetamide]",< 5 µM,–,10 to 25 µM,< 5 µM,–,–,–,–
"CC(=O)Nc1ccc(Nc2ncc3ccc(OC4CCNCC4)cc3n2)cc1C [Compound 63, N-{2-Methyl-4-[7-(piperidin-4-yloxy)-quinazolin-2-ylamino]-phenyl}-acetamide]",< 5 µM,–,< 5 µM,< 5 µM,–,–,–,–
"O=S(=O)(NC1CC1)c1ccc(Nc2ncc3cccc(OC4CCNCC4)c3n2)cc1 [Compound 781, N-cyclopropyl-4-(8-(piperidin-4-yloxy)quinazolin-2-ylamino)benzenesulfonamide]",–,–,–,–,< 5 µM,< 5 µM,< 5 µM,< 5 µM
"NS(=O)(=O)c1ccc(Nc2ncc3ccc(OC4CCNCC4)cc3n2)cc1 [Compound 750, 4-(7-(piperidin-4-yloxy)quinazolin-2-ylamino)benzenesulfonamide]",–,–,–,–,< 5 µM,< 5 µM,< 5 µM,< 5 µM
"NS(=O)(=O)c1ccc(Nc2ncc3cccc(O[C@@H]4CN5CCC4CC5)c3n2)cc1 [Compound 744, (S)-4-(8-(quinuclidin-3-yloxy)quinazolin-2-ylamino)benzenesulfonamide]",–,–,–,–,< 5 µM,< 5 µM,< 5 µM,< 5 µM
CC(=O)Nc1cccc(Nc2ncc3cccc(OC4CCN(C(C)C)CC4)c3n2)c1 [Compound 81],< 5 µM,–,< 5 µM,< 5 µM,–,–,–,–
"Fc1ccc(Nc2ncc3ccc(OC4CCNCC4)cc3n2)cc1 [Compound 59, (4-Fluoro-phenyl)-[7-(piperidin-4-yloxy)-quinazolin-2-yl]-amine]",< 5 µM,–,< 5 µM,< 5 µM,–,–,–,–
"O=S(=O)(NCCN1CCCC1)c1ccc(Nc2ncc3cccc(OC4CCNCC4)c3n2)cc1 [Compound 810, 4-(8-(piperidin-4-yloxy)quinazolin-2-ylamino)-N-(2-(pyrrolidin-1-yl)ethyl)benzenesulfonamide]",–,–,–,–,< 5 µM,< 5 µM,< 5 µM,< 5 µM
"NS(=O)(=O)c1ccc(Nc2ncc3ccc(-c4cccnc4F)cc3n2)cc1 [Compound 800, 4-(7-(2-fluoropyridin-3-yl)quinazolin-2-ylamino)benzenesulfonamide]",–,–,–,–,< 5 µM,< 5 µM,< 5 µM,< 5 µM
"CN1CCC(Nc2ccc3cnc(Nc4ccc(S(N)(=O)=O)cc4)nc3c2)CC1 [Compound 843, 4-(7-(1-methylpiperidin-4-ylamino)quinazolin-2-ylamino)benzenesulfonamide]",–,–,–,–,< 5 µM,< 5 µM,< 5 µM,< 5 µM
"CC(C)N1CCC(Oc2cccc3cnc(Nc4ccc(N5CCOCC5)cc4)nc23)CC1 [Compound 72, [8-(1-Isopropyl-piperidin-4-yloxy)-quinazolin-2-yl]-(4-morpholin-4-yl-phenyl)-amine]",< 5 µM,–,< 5 µM,< 5 µM,–,–,–,–
